Laboratory results from PubChem BioAssay AID258 (DTP/NCI, 2004).
Several values for one entry are separate records, joined by “and”; a condition that tells them apart may be missing. Equal values may be shown once. Inconclusive results and toxic doses are left out.

System: CD2F1 mice, L1210 leukemia sc, survival T/C
Assay: NCI In Vivo Anticancer Drug Screen. Data for tumor model L1210 Leukemia (subcutaneous) in CD2F1 (CDF1) mice
Details: higher = longer survival
Summary of the method: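 Antitumor activity is scored in tumor-bearing mice by comparing survival or tumor size of treated animals against vehicle-treated controls, reported as T/C.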

[1] = endpoint: median survival time, dose: 6.25 mg/kg/injection, schedule: Q01DX009 (ip), vehicle: saline
[2] = endpoint: median survival time, dose: 12.5 mg/kg/injection, schedule: Q01DX009 (ip), vehicle: saline

In the case of O=c1[nH]cc(F)c(=O)[nH]1, the T/C (endpoint: median survival time, dose: 2.5 mg/kg/injection, schedule: Q01DX009 (ip), vehicle: saline) is reported as 109 % of control and 94 % of control, the T/C (endpoint: median survival time, dose: 5.0 mg/kg/injection, schedule: Q01DX009 (ip), vehicle: saline) is reported as 101 % of control and 106 % of control and the T/C (endpoint: median survival time, dose: 6.0 mg/kg/injection, schedule: Q01DX009 (ip), vehicle: saline) is reported as 111 % of control. For the same molecule, the T/C (endpoint: median survival time, dose: 6.0 mg/kg/injection, schedule: Q01DX009 (sc), vehicle: saline) was 110 % of control, the T/C [1] was 93 % of control and the T/C (endpoint: median survival time, dose: 10.0 mg/kg/injection, schedule: Q01DX009 (ip), vehicle: saline) was 108 % of control and 114 % of control and 117 % of control. For the same molecule, the T/C (endpoint: median survival time, dose: 10.0 mg/kg/injection, schedule: Q01DX009 (sc), vehicle: saline) was 102 % of control, the T/C (endpoint: median survival time, dose: 12.5 mg/kg/injection, schedule: Q01DX006 (ip), vehicle: saline) was 105 % of control and the T/C [2] was 112 % of control. The T/C (endpoint: median survival time, dose: 12.5 mg/kg/injection, schedule: Q02DX005 (ip), vehicle: saline) was 111 % of control, the T/C (endpoint: median survival time, dose: 16.0 mg/kg/injection, schedule: Q01DX009 (sc), vehicle: saline) was 150 % of control and the T/C (endpoint: median survival time, dose: 20.0 mg/kg/injection, schedule: Q01DX009 (sc), vehicle: saline) was 118 % of control. For the same molecule, the T/C (endpoint: median survival time, dose: 24.0 mg/kg/injection, schedule: Q01DX009 (ip), vehicle: saline) was 155 % of control, the T/C (endpoint: median survival time, dose: 24.0 mg/kg/injection, schedule: Q01DX009 (sc), vehicle: saline) was 152 % of control and 168 % of control and the T/C (endpoint: median survival time, dose: 25.0 mg/kg/injection, schedule: Q02DX005 (ip), vehicle: saline) was 112 % of control. The T/C (endpoint: median survival time, dose: 25.0 mg/kg/injection, schedule: Q04DX003 (ip), vehicle: saline) was 100 % of control, the T/C (endpoint: median survival time, dose: 26.7 mg/kg/injection, schedule: Q01DX009 (sc), vehicle: saline) was 152 % of control and the T/C (endpoint: median survival time, dose: 40.0 mg/kg/injection, schedule: Q01DX009 (ip), vehicle: saline) was 104 % of control and 114 % of control and 94 % of control. The T/C (endpoint: median survival time, dose: 40.0 mg/kg/injection, schedule: Q01DX009 (sc), vehicle: saline) was 151 % of control and 160 % of control, the T/C (endpoint: median survival time, dose: 48.0 mg/kg/injection, schedule: Q01DX009 (ip), vehicle: saline) was 102 % of control and the T/C (endpoint: median survival time, dose: 48.0 mg/kg/injection, schedule: Q01DX009 (sc), vehicle: saline) was 117 % of control. For the same molecule, the T/C (endpoint: median survival time, dose: 50.0 mg/kg/injection, schedule: Q01DX001 (ip), vehicle: saline) was 111 % of control, the T/C (endpoint: median survival time, dose: 50.0 mg/kg/injection, schedule: Q01DX009 (ip), vehicle: saline) was 150 % of control and the T/C (endpoint: median survival time, dose: 50.0 mg/kg/injection, schedule: Q04DX003 (ip), vehicle: saline) was 100 % of control. For the same molecule, the T/C (endpoint: median survival time, dose: 60.0 mg/kg/injection, schedule: Q01DX009 (sc), vehicle: saline) was 161 % of control, the T/C (endpoint: median survival time, dose: 65.0 mg/kg/injection, schedule: Q01DX Z (sc), vehicle: saline) was 112 % of control and the T/C (endpoint: median survival time, dose: 80.0 mg/kg/injection, schedule: Q01DX009 (ip), vehicle: saline) was 103 % of control. For the same molecule, the T/C (endpoint: median survival time, dose: 96.0 mg/kg/injection, schedule: Q01DX009 (ip), vehicle: saline) was 91 % of control, the T/C (endpoint: median survival time, dose: 96.0 mg/kg/injection, schedule: Q01DX009 (sc), vehicle: saline) was 88 % of control and the T/C (endpoint: median survival time, dose: 100.0 mg/kg/injection, schedule: Q01DX001 (ip), vehicle: saline) was 122 % of control. The T/C (endpoint: median survival time, dose: 100.0 mg/kg/injection, schedule: Q02DX005 (ip), vehicle: saline) was 175 % of control, the T/C (endpoint: median survival time, dose: 100.0 mg/kg/injection, schedule: Q04DX003 (ip), vehicle: saline) was 155 % of control and the T/C (endpoint: median survival time, dose: 108.0 mg/kg/injection, schedule: Q01DX Z (sc), vehicle: saline) was 112 % of control. For the same molecule, the T/C (endpoint: median survival time, dose: 180.0 mg/kg/injection, schedule: Q01DX Z (sc), vehicle: saline) was 108 % of control and the T/C (endpoint: median survival time, dose: 400.0 mg/kg/injection, schedule: Q01DX001 (ip), vehicle: saline) was 122 % of control.
With O=C(O)c1[nH]c(=O)[nH]c(=O)c1F the T/C (endpoint: median survival time, dose: 3.0 mg/kg/injection, schedule: Q01DX Z (sc), vehicle: saline) was 111 % of control, the T/C (endpoint: median survival time, dose: 8.4 mg/kg/injection, schedule: Q01DX Z (sc), vehicle: saline) was 177 % of control and the T/C (endpoint: median survival time, dose: 14.0 mg/kg/injection, schedule: Q01DX Z (sc), vehicle: saline) was 155 % of control. For the same molecule, the T/C (endpoint: median survival time, dose: 23.0 mg/kg/injection, schedule: Q01DX Z (sc), vehicle: saline) was 166 % of control and the T/C (endpoint: median survival time, dose: 39.0 mg/kg/injection, schedule: Q01DX Z (sc), vehicle: saline) was 155 % of control.
With CN(C)/N=N/c1nc[nH]c1C(N)=O the T/C (endpoint: mean survival time, dose: 39.0 mg/kg/injection, schedule: Q01DX009 (sc), vehicle: steriod suspending solution) was 118 % of control, the T/C (endpoint: mean survival time, dose: 50.0 mg/kg/injection, schedule: Q01DX017 (sc), vehicle: steriod suspending solution) was 117 % of control and the T/C (endpoint: mean survival time, dose: 65.0 mg/kg/injection, schedule: Q01DX009 (sc), vehicle: steriod suspending solution) was 118 % of control. For the same molecule, the T/C (endpoint: mean survival time, dose: 200.0 mg/kg/injection, schedule: Q01DX017 (sc), vehicle: steriod suspending solution) was 156 % of control, the T/C (endpoint: mean survival time, dose: 400.0 mg/kg/injection, schedule: Q01DX017 (sc), vehicle: steriod suspending solution) was 172 % of control and the T/C [1] was 104 % of control. For the same molecule, the T/C [2] was 121 % of control, the T/C (endpoint: median survival time, dose: 39.0 mg/kg/injection, schedule: Q01DX009 (sc), vehicle: steriod suspending solution) was 114 % of control and the T/C (endpoint: median survival time, dose: 39.0 mg/kg/injection, schedule: Q01DX Z (sc), vehicle: steriod suspending solution) was 111 % of control. The T/C (endpoint: median survival time, dose: 50.0 mg/kg/injection, schedule: Q01DX017 (sc), vehicle: steriod suspending solution) was 118 % of control and 122 % of control, the T/C (endpoint: median survival time, dose: 65.0 mg/kg/injection, schedule: Q01DX009 (sc), vehicle: steriod suspending solution) was 117 % of control and the T/C (endpoint: median survival time, dose: 65.0 mg/kg/injection, schedule: Q01DX Z (sc), vehicle: carboxymethylcellulose (CMC)) was 100 % of control. For the same molecule, the T/C (endpoint: median survival time, dose: 65.0 mg/kg/injection, schedule: Q01DX Z (sc), vehicle: steriod suspending solution) was 116 % of control, the T/C (endpoint: median survival time, dose: 100.0 mg/kg/injection, schedule: Q01DX009 (ip), vehicle: saline with Tween-80) was 157 % of control and the T/C (endpoint: median survival time, dose: 100.0 mg/kg/injection, schedule: Q01DX009 (ip), vehicle: saline) was 157 % of control. For the same molecule, the T/C (endpoint: median survival time, dose: 100.0 mg/kg/injection, schedule: Q01DX009 (sc), vehicle: saline) was 151 % of control, the T/C (endpoint: median survival time, dose: 108.0 mg/kg/injection, schedule: Q01DX Z (sc), vehicle: carboxymethylcellulose (CMC)) was 100 % of control and the T/C (endpoint: median survival time, dose: 150.0 mg/kg/injection, schedule: Q01DX009 (ip), vehicle: saline) was 178 % of control. The T/C (endpoint: median survival time, dose: 180.0 mg/kg/injection, schedule: Q01DX Z (sc), vehicle: carboxymethylcellulose (CMC)) was 100 % of control, the T/C (endpoint: median survival time, dose: 200.0 mg/kg/injection, schedule: Q01DX009 (ip), vehicle: saline with Tween-80) was 160 % of control and the T/C (endpoint: median survival time, dose: 200.0 mg/kg/injection, schedule: Q01DX009 (ip), vehicle: saline) was 166 % of control. The T/C (endpoint: median survival time, dose: 200.0 mg/kg/injection, schedule: Q01DX017 (sc), vehicle: steriod suspending solution) was 152 % of control and 155 % of control, the T/C (endpoint: median survival time, dose: 225.0 mg/kg/injection, schedule: Q01DX009 (sc), vehicle: saline) was 186 % of control and the T/C (endpoint: median survival time, dose: 300.0 mg/kg/injection, schedule: Q01DX009 (ip), vehicle: saline) was 172 % of control. The T/C (endpoint: median survival time, dose: 300.0 mg/kg/injection, schedule: Q01DX009 (sc), vehicle: steriod suspending solution) was 153 % of control, the T/C (endpoint: median survival time, dose: 300.0 mg/kg/injection, schedule: Q01DX Z (sc), vehicle: carboxymethylcellulose (CMC)) was 100 % of control and the T/C (endpoint: median survival time, dose: 300.0 mg/kg/injection, schedule: Q01DX Z (sc), vehicle: steriod suspending solution) was 155 % of control. The T/C (endpoint: median survival time, dose: 400.0 mg/kg/injection, schedule: Q01DX017 (sc), vehicle: steriod suspending solution) was 175 % of control and 177 % of control, the T/C (endpoint: median survival time, dose: 500.0 mg/kg/injection, schedule: Q01DX Z (sc), vehicle: carboxymethylcellulose (CMC)) was 111 % of control and 100 % of control and the T/C (endpoint: median survival time, dose: 600.0 mg/kg/injection, schedule: Q01DX009 (sc), vehicle: saline + alcohol) was 160 % of control. For the same molecule, the T/C (endpoint: median survival time, dose: 600.0 mg/kg/injection, schedule: Q01DX009 (sc), vehicle: saline) was 118 % of control, the T/C (endpoint: median survival time, dose: 800.0 mg/kg/injection, schedule: Q01DX009 (ip), vehicle: saline with Tween-80) was 96 % of control and the T/C (endpoint: median survival time, dose: 833.0 mg/kg/injection, schedule: Q01DX Z (sc), vehicle: carboxymethylcellulose (CMC)) was 150 % of control. The T/C (endpoint: median survival time, dose: 900.0 mg/kg/injection, schedule: Q01DX009 (sc), vehicle: saline + alcohol) was 155 % of control, the T/C (endpoint: median survival time, dose: 1200.0 mg/kg/injection, schedule: Q01DX009 (sc), vehicle: saline) was 90 % of control and the T/C (endpoint: median survival time, dose: 1388.0 mg/kg/injection, schedule: Q01DX Z (sc), vehicle: carboxymethylcellulose (CMC)) was 155 % of control.
